Values after ≈ are worked out from the molar mass of the structure shown. Where two headings read alike, the source gives them in different places. Some results are limits rather than exact numbers.

The conditions of data set [1]: cited from earlier work.
Data set [2] can be described thus: In vitro release of steroids entrapped in hydrogel compared to free drug in PBS. The class given is physicochemical. The following applies: 9% 4a20KSG hydrogel, FIG. 20. Here is the method: A 9% 4a20KSG hydrogel was prepared incorporating three different steroids (flunisolide, budesonide, and triamcinolone acetonide).

Consider `CC(C)Cc1ccc(C(C)C(=O)O)cc1` (stereo not shown) [Ibuprofen], for which the Solubility in data set [1] (pH 7) is on record as 10 mg/ml @ pH 7.

As to `CCc1cccc2c3c([nH]c12)C(CC)(CC(=O)O)OCC3` (stereo not shown) [Etodolac], in data set [1] (in water), the Solubility result is recorded as “Insoluble in water”.

For the molecule `Cc1ccc(-c2cc(C(F)(F)F)nn2-c2ccc(S(N)(=O)=O)cc2)cc1` [Celecoxib], the Solubility in data set [1] is 0.005 mg/mL (≈ 13.1 µM).

Consider `COc1c(N2C[C@@H]3CCCN[C@@H]3C2)c(F)cc2c(=O)c(C(=O)O)cn(C3CC3)c12` [Moxifloxacin], for which the “Solubility in aqueous solutions” value in data set [1] is listed as “readily soluble”.

`CC(C(=O)O)c1ccc(-c2ccccc2)c(F)c1` (stereo not shown) [Flurbiprofen]: the Solubility in data set [1] was 0.9 mg/mL (≈ 3680 µM).

As to `NC(=O)Cc1cccc(C(=O)c2ccccc2)c1N` [Nepafenac], the Solubility in data set [1] was <1 mg/ml (The drug is available as 0.1% suspension).

`CC1(C)O[C@@H]2C[C@H]3[C@@H]4C[C@H](F)C5=CC(=O)C=C[C@]5(C)[C@H]4[C@@H](O)C[C@]3(C)[C@]2(C(=O)CO)O1` [flunisolide]: the “Release profile in hydrogel compared to free drug in PBS” value in data set [2] is given as “slower more sustained drug release profile”.

For the molecule `CC(C(=O)[O][Ca][O]C(=O)C(C)c1cccc(Oc2ccccc2)c1)c1cccc(Oc2ccccc2)c1` (stereo not shown) [Fenoprofen Calcium], the Solubility entry in data set [1] (in water) is “Slightly soluble in water”.

Take `Cc1ccc(Cl)c(Nc2ccccc2C(=O)[O-])c1Cl.[Na+]` [Meclofenamate sodium]: the Solubility in data set [1] (pH 7.2) and in data set [1] (pH 9.0) was <50 μg/mL @ pH 7.2 50 mg/mL @ pH 9.0 each time.

For the molecule `COc1ccc2c(c1)c(CC(=O)O)c(C)n2C(=O)c1ccc(Cl)cc1` [Indomethacin], the Solubility was 0.54 mg/mL (≈ 1510 µM) in data set [1] (pH 7, Form I) and 0.80 mg/mL (≈ 2240 µM) in data set [1] (pH 7, Form II).

With `O=C(c1ccccc1)c1ccc2n1CCC2C(=O)O` (stereo not shown) [Ketorolac], the Solubility in data set [1] (in IPB) is 10.5 mg/mL (≈ 41100 µM).

`Cc1cccc(Nc2ccccc2C(=O)[O-])c1C.[Na+]` [Mefanamic Acid]: the Solubility in data set [1] (pH 7.1) is given as 40 μg/ml @ pH 7.1.

With `CC(C)OC(=O)CCC/C=C\C[C@@H]1[C@@H](CC[C@@H](O)CCc2ccccc2)[C@H](O)C[C@@H]1O` [Latanoprost], the “Solubility in aqueous solutions” value in data set [1] is listed as “relatively low solubility”.

For `O=C(O)c1cc(-c2ccc(F)cc2F)ccc1O` [Diflunisal], in data set [1] (pH 7), the Solubility was 3.43 mg/ml @ pH 7.

Source of the values: US8563027B2, “Drug delivery through hydrogel plugs” (Incept, LLC, priority 2009, dated 2013).
